Measured values from patent US20020187514A1 (priority 1999, published 2002).
Counter-ions that a name gives are not always drawn.

Key:
[1] = target: Adenosine Transport (cs + es); test: Adenosine Transport (cs + es) (Human); [3H]-Adenosine; format: biochemical; conditions: reference compound, QA/QC; read-out: Ref Kj
[2] = target: Glutamate, NMDA Agonist Site; test: Glutamate, NMDA Agonist Site; [3H]CGP 39653; format: binding; conditions: reference compound, QA/QC; read-out: Ref Kj
Oxytocin = format: binding; conditions: read-out: Ref Kj
Thromboxane A2 = target: T1, Thromboxane A2 (Homo sapiens, UniProt P21731); test: Thromboxane A2 (Human); [3H]SQ 29,548; format: binding; conditions: reference compound, QA/QC; read-out: Ref Kj
T1 construct: from human cell lines; endogenous in cells
T1 sequence (P21731 whole entry): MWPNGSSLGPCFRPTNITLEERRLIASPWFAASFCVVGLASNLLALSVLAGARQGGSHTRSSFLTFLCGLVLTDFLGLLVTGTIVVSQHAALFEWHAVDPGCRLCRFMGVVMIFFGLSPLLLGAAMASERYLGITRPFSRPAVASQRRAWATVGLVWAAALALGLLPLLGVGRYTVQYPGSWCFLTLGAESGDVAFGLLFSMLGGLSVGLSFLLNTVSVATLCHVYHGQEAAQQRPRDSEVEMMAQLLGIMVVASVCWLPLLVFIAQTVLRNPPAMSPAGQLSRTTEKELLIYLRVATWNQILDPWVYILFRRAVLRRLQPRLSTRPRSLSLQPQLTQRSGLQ

Sigma 1 = target: T2, Sigma 1 (Cavia porcellus, UniProt Q60492); test: Sigma 1; [3H]-(+)-Pentazocine; format: binding, guinea pig; conditions: reference compound, QA/QC; read-out: Ref Kj
T2 construct: Fresh guinea pig whole brain was obtained following decapitation; from tissue; host or cells: guinea pig whole brain membranes
T2 sequence (Q60492 whole entry): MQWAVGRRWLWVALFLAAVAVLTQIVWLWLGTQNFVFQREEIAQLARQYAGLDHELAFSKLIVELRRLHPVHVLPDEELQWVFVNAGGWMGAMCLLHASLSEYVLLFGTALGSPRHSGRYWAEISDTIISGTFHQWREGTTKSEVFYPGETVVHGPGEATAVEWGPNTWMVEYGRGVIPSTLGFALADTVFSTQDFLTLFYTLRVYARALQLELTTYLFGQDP

[3] = target: T3, Monoamine Oxidase A, Peripheral (Rattus norvegicus, UniProt P21396); test: biochemical; conditions: reference compound, QA/QC; read-out: Ref Kj
T3 construct: no other source notation after assay name denotes animal cell or animal tissue source; from tissue
T3 sequence (P21396 whole entry, looked up): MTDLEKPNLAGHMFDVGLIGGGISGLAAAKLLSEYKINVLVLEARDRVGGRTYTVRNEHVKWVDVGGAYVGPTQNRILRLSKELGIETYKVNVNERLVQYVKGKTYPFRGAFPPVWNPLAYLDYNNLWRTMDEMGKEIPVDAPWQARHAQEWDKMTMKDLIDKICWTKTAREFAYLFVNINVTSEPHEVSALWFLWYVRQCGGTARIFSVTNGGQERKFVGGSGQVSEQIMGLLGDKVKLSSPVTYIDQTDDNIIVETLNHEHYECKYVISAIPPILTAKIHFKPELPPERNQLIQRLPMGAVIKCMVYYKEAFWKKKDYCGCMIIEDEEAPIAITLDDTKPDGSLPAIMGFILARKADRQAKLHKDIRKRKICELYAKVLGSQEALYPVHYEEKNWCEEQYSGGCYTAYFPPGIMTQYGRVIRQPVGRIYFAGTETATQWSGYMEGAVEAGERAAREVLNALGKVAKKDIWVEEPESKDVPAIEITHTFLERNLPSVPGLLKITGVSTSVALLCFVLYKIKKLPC

[4] = target: Somatostatin, Non-selective; test: Somatostatin, Non-selective; [125]-Somatostatin-14 (Tyr11); format: binding; conditions: reference compound, QA/QC; read-out: Ref Kj
Elastase = target: T4, Elastase (Homo sapiens, UniProt P08246); test: Elastase (Human); substrate MeO-Suc-Ala-Ala-Pro-Val-pNA; format: biochemical; conditions: reference compound, QA/QC; read-out: Ref Kj
T4 construct: from human cell lines; endogenous in cells
T4 sequence (P08246 30-267): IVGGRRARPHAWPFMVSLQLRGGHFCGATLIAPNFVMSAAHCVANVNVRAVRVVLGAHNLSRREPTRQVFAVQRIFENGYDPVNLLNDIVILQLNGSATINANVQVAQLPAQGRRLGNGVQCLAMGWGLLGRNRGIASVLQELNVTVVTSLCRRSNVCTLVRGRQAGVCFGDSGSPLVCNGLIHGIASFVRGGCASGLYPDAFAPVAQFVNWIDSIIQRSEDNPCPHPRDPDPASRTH

Serotonin, 5HT3 = Serotonin, 5HT3 (Mus musculus, UniProt P23979); test: biochemical; format: binding; conditions: radioligand, assay parameter; read-out: KD of the 5HT3 receptor for the radioligand
Sequence of Serotonin, 5HT3 (P23979 24-489): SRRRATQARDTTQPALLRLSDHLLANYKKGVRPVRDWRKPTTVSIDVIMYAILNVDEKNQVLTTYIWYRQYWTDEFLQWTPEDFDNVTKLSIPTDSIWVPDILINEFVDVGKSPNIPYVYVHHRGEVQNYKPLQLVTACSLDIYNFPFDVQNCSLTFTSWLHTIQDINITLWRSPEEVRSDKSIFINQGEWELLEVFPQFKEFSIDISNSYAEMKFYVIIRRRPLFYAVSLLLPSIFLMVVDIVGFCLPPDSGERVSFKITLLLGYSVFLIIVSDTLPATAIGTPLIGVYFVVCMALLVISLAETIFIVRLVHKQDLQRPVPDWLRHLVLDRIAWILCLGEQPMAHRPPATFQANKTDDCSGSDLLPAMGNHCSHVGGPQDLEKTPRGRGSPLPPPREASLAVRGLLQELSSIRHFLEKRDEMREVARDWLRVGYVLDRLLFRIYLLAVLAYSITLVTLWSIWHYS

Dopamine Transporter = Dopamine Transporter (Cavia porcellus, UniProt H0WCX4); test: biochemical; format: binding, Guinea Pig; conditions: read-out: Kd for the receptor
Sequence of Dopamine Transporter (H0WCX4 1-619): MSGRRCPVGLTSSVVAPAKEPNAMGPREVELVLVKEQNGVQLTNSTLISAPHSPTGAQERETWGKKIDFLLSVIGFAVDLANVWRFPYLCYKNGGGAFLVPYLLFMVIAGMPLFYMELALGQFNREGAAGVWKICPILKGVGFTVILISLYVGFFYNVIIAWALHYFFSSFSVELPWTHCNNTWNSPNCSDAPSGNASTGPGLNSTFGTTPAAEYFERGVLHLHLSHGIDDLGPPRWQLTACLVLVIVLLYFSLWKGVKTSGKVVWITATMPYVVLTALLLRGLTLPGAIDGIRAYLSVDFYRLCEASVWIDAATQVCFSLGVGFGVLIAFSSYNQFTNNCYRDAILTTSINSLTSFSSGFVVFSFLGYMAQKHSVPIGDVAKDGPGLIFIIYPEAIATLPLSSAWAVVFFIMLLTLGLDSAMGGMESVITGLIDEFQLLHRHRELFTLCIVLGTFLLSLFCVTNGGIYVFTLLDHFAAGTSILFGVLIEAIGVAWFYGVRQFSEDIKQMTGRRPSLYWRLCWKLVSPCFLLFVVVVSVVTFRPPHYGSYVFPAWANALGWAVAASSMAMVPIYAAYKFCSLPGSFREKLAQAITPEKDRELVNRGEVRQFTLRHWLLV

[5] = target: Choline Acetyltransferase; test: Choline Acetyltransferase; substrate [14C]Acetyl Coenzyme; format: biochemical; conditions: reference compound, QA/QC; read-out: Ref Kj
[6] = target: Thyrotropin Releasing Hormone, TRH; test: Thyrotropin Releasing Hormone, TRH; [3H]-(3MeHis2)TRH; format: binding; conditions: reference compound, QA/QC; read-out: Ref Kj
[7] = target: Glutamate, NMDA, Phencyclidine Site; test: Glutamate, NMDA, Phencyclidine Site; [3H]TCP; format: binding; conditions: reference compound, QA/QC; read-out: Ref Kj
Glutamate, MK-801 Site = test: Glutamate, MK-801 Site; [3H]MK-801; format: binding; conditions: reference compound, QA/QC; read-out: Ref Kj
Vasopressin, V1A = Vasopressin, V1A (Homo sapiens, UniProt P37288); test: Vasopressin, V1A (Human); [125I]-Via Antagonist; format: binding; conditions: read-out: Ref Kj
Sequence of Vasopressin, V1A (P37288 whole entry): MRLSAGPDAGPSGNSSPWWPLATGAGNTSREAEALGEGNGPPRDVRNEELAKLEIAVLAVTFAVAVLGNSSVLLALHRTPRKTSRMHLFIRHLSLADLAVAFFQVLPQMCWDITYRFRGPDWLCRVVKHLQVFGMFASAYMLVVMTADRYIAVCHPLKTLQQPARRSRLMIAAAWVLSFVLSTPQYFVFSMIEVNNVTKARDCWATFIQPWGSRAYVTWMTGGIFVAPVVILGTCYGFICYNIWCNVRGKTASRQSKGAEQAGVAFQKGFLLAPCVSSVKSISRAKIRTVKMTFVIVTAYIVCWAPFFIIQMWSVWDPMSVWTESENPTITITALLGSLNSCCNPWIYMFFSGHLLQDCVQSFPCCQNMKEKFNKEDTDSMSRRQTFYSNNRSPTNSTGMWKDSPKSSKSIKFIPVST

[8] = target: T5, Protein Tyrosine Phosphatase, PTP-LAR-D1 (Homo sapiens, UniProt P10586); test: Protein Tyrosine Phosphatase, PTP-LAR-D1 (Human); substrate pNPP; format: biochemical; conditions: read-out: Ref Kj
T5 construct: PTP-LAR-D1
T5 sequence (P10586 1352-1607): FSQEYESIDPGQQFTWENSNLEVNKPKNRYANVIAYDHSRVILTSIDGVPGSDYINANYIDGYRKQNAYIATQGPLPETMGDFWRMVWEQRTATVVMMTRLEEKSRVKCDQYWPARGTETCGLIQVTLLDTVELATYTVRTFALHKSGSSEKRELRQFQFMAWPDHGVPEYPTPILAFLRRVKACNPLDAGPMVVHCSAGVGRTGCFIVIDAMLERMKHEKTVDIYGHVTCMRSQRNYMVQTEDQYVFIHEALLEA

[9] = target: Protein Tyrosine Phosphatase, PTP-CD45 (Homo sapiens, UniProt P08575); test: Protein Tyrosine Phosphatase, PTP-CD45 (Human); substrate pNPP; format: biochemical; conditions: read-out: Ref Kj
Sequence of Protein Tyrosine Phosphatase, PTP-CD45 (P08575 26-1306): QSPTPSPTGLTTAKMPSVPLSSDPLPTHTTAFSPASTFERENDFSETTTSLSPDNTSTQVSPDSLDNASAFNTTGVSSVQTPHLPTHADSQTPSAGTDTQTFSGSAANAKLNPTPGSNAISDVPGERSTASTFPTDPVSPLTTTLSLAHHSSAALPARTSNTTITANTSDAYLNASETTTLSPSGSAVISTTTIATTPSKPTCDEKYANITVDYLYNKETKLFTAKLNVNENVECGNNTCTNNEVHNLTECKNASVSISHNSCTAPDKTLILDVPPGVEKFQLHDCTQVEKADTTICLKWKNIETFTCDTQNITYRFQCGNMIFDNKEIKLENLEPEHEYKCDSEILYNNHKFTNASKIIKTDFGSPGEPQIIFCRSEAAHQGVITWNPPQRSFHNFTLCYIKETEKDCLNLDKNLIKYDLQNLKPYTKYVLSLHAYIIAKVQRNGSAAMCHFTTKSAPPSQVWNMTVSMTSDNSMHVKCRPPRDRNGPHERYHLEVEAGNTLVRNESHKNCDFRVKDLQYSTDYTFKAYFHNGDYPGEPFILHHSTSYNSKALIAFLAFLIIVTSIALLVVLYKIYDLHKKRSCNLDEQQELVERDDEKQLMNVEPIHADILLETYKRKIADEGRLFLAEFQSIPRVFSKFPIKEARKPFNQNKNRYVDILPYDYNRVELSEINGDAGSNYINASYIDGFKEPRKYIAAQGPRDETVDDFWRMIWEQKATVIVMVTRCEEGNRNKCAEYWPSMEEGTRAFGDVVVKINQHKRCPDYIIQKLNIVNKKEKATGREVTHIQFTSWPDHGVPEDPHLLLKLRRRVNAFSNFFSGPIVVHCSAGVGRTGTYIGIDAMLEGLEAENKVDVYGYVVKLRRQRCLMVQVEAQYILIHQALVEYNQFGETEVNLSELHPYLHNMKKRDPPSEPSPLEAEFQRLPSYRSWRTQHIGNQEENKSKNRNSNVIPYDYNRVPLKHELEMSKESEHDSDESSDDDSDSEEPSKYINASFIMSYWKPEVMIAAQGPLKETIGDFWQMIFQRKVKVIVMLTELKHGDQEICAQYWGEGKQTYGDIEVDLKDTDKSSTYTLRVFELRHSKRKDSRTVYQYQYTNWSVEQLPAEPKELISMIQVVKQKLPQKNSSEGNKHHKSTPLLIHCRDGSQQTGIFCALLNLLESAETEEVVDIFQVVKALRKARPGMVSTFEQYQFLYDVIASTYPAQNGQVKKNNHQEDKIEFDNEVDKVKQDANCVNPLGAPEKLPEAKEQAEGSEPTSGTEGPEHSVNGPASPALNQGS

[10] = target: Protein Phosphatase, PP2B (Calcineurin); test: Protein Phosphatase, PP2B (Calcineurin); substrate pNPP; format: biochemical; conditions: read-out: Ref Kj
[11] = target: Protein Tyrosine Phosphatase, PTP-B; test: Protein Tyrosine Phosphatase, PTP-B (Human); substrate pNPP; format: biochemical; conditions: read-out: Ref Kj
[12] = test system: Protein Tyrosine Phosphatase, PTP-Cell; test: Protein Tyrosine Phosphatase, PTP-Cell (Human); substrate pNPP; format: biochemical; conditions: read-out: Ref Kj
Angiotensin II, AT2 = format: binding; conditions: read-out: Ref Kj
[13] = target: Cholecystokinin, CCK2 (CCKB); test: Cholecystokinin, CCK2 (CCKB); [125I]CCK-8; format: binding; conditions: read-out: Ref Kj
[14] = target: Cholecystokinin, CCK1 (CCKA); test: Cholecystokinin, CCK1 (CCKA); [125I]CCK-8; format: binding; conditions: read-out: Ref Kj
[15] = target: Protein Phosphatase, PP2A (Homo sapiens, UniProt P67775); test: Protein Phosphatase, PP2A (Human); substrate DiFMUP; format: biochemical; conditions: reference compound, QA/QC; read-out: Ref Kj
Sequence of Protein Phosphatase, PP2A (P67775 whole entry): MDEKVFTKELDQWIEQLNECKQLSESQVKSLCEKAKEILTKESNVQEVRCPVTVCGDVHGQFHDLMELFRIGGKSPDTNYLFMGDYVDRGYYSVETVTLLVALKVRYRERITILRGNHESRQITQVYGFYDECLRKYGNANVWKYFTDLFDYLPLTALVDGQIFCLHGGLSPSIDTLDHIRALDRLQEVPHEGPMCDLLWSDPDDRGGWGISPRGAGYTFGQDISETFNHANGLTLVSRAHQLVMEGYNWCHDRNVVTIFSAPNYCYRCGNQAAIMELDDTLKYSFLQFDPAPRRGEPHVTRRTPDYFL

[16] = target: Potassium Channel, Ca2+ Act., VS; test: Potassium Channel, Ca2+ Act., VS; [125I]Charybdotoxin; format: binding; conditions: reference compound, QA/QC; read-out: Ref Kj
Neurokinin, NK1 = format: binding; conditions: read-out: Ref Kj
[17] = target: Vasoactive Intestine Peptide, Non-selective; format: binding; conditions: read-out: Ref Kj
Calcium Channel, Type N = format: binding; conditions: read-out: Ref Kj

O=[N+]([O-])c1ccc(CSc2ncnc3c2ncn3[C@@H]2O[C@H](CO)[C@@H](O)[C@H]2O)cc1 [NBTI]
Ki [1]: 0.331 nM

CN[C@H](CC(=O)O)C(=O)O [NMDA]
Ki [2]: 13100 nM

CCCCC[C@@H](O)/C=C/[C@H]1C[C@H]2C[C@@H]([C@@H]1C/C=C\CCCC(=O)O)C2(C)C [Pinane-thromboxane A2]
Ki (Thromboxane A2): 30.3 nM

CCCN1CCC[C@H](c2cccc(O)c2)C1 [R(+)-3-PPP HCl]
Ki (Sigma 1): 1.27 nM

NCCNC(=O)c1ncsc1-c1cccc(F)c1 [Ro 41-1049 HCl]
Ki [3]: 1.08 nM

C[C@H](N)C(=O)NCC(=O)N[C@H]1CSSC[C@@H](C(=O)O)NC(=O)[C@H](CO)NC(=O)[C@H]([C@@H](C)O)NC(=O)[C@H](Cc2ccccc2)NC(=O)[C@H]([C@@H](C)O)NC(=O)[C@H](CCCCN)NC(=O)[C@H](Cc2c[nH]c3ccccc23)NC(=O)[C@H](Cc2ccccc2)NC(=O)[C@H](Cc2ccccc2)NC(=O)[C@H](CC(N)=O)NC(=O)[C@H](CCCCN)NC1=O [Somatostatin]
Ki [4]: 0.768 nM

C[C@H]1[C@H](C)CC[C@]2(C(=O)O)CC[C@]3(C)C(=CC[C@@H]4[C@@]5(C)CC[C@H](O)C(C)(C)[C@@H]5CC[C@]43C)[C@H]12 [Ursolic Acid]
Ki (Elastase): 2320 nM

Cc1[nH]cnc1CCC(=O)c1cn(C)c2ccccc12 [[^3H]-GR65630]
Kd (Serotonin, 5HT3): 0.35 nM

COC(=O)[C@H]1[C@@H](c2ccc(F)cc2)C[C@@H]2CC[C@H]1N2C [[^3H]-WIN 35-428]
Kd (Dopamine Transporter): 28 nM

C[N+](C)(C)CCC(=O)c1ccc2ccccc2c1 [beta-NETA]
Ki [5]: 425 nM

(3MeHis2) TRH
Ki [6]: 175 nM

(+)-MK-801 HMaleate
Ki [7]: 8.96 nM | Ki (Glutamate, MK-801 Site): 2.33 nM

(Phe)(Me)2A6,8,L9AVP
Ki (Vasopressin, V1A): 0.128 nM

Ammonium Molybdate
Ki [8]: 117 nM | Ki [9]: 30.9 nM | Ki [10]: 90500 nM | Ki [11]: 313 nM | Ki [12]: 41.3 nM

Angiotensin II (Human)
Ki (Angiotensin II, AT2): 0.578 nM

CCK-8 (sulfated)
Ki [13]: 0.479 nM | Ki [14]: 0.0228 nM

Calyculin
Ki [15]: 0.722 nM

Charybdotoxin
Ki [16]: 0.204 nM

Substance P
Ki (Neurokinin, NK1): 13 nM

VIP
Ki [17]: 1.9 nM

w-Conotoxin GVIA
Ki (Calcium Channel, Type N): 0.0124 nM
